In ChEMBL document CHEMBL3507680, “University of Dundee, Gates Library screen for HepG2 cell viability”:

experiment: Human HepG2 cell viability assay in 384 well format; assay type: toxicity, cell-based; design: dose 125 nL, time 70.5 hour; cytotoxicity at 70.5 h: concentration not given beside the values; conditions: HepG2 cells, read-out: Inhibition

SMILES	cytotoxicity at 70.5 h [%]
CCc1nc(CN2CCCC(N(C)CCn3cncn3)C2)no1 (centres undefined)	-9.76
CCc1nc(CN2CCCC(NCCn3cncn3)C2)no1 (centres undefined)	-8.1
O=C(CNC(=O)c1ccoc1)NCCOc1ccc2c(c1)CCC2	-6.52
Cc1cc(N2CCc3c(ncn3C3CC3)C2)nc(N)n1	-7.99
Cc1c(Cl)cccc1NC(=O)CCNc1ccc(C#N)cn1	-6.94
OC(CN1CCN(CC2CC2)CC1)c1ccc(Br)cc1 (centres undefined)	-2.6
CS(=O)(=O)NC1CCN(C(=O)c2ccc(Br)o2)C1 (centres undefined)	-5.52
CS(=O)(=O)NC1CCN(C(=O)c2ccc(Br)cc2)C1 (centres undefined)	-7.16
COc1cc(Cl)c(C)cc1NC(=O)CCNc1ccc(C#N)cn1	9.88
Cc1nsc(N2CCN(CC(=O)NCc3cccnc3)CC2)n1	-0.83
O=C(CCc1ccco1)NCC1CCCN1c1cccnn1 (centres undefined)	-2.58
Cn1cnnc1CNC(=O)Nc1ccc(OC2CCC2)c(F)c1	-4.19
CSc1ccc(NC(=O)NCc2nncn2C2CC2)cc1F	2.39
Cc1csc(CCCNC(=O)NC2CC(=O)N(C(C)(C)C)C2)n1 (centres undefined)	-2.05
Cc1nc(C)c(CCNC(=O)NC2CC(=O)N(C(C)(C)C)C2)s1 (centres undefined)	-5.16
O=C(c1ccc2nncn2c1)N1CCCC1c1noc(C2CC2)n1 (centres undefined)	-7.81
c1cnnc(N2CCCC2CNCCc2cccs2)c1 (centres undefined)	-7.61
COC(=O)N1CCC(Nc2cccc(F)c2C(C)=O)C1 (centres undefined)	-9.32
CCC(C)NC(=O)c1ccc(CNC(=O)COC)cc1 (centres undefined)	-9.97
Cc1ccc(C(=O)NCCNC(=O)c2cncnc2C(C)C)cc1F	-7.29
CC(C)(C)OC(=O)NCC1CCN(C(=O)c2ccccc2O)CC1	-7.62
Cc1c(F)cc(C(=O)NCC(F)(F)F)cc1NCC(=O)N(C)C	10.3
COC(=O)CCNC(=O)c1ccc(NC(=O)N(C)CC(C)C)cc1	12.2
CC(C)C(=O)NCc1ccccc1NS(=O)(=O)c1ccccc1	-3.22

SMILES	cytotoxicity at 70.5 h [%]
COc1ccc(OC)c(C(O)CN2CCN(C3CCCC3)CC2)c1 (centres undefined)	-7.66
COC(=O)C1CN(CC(=O)Nc2cccc(OC)c2)c2ccccc21 (centres undefined)	-9.39
COC(=O)N1CCC(Nc2cccc(F)c2C#N)CC1	-3.28
CC(=O)c1c(F)cccc1NC1CCN(C(=O)CC(C)C)CC1	12.4
Cc1ccc(O)c(C(=O)N2CCC(CNC(=O)OC(C)(C)C)C2)c1 (centres undefined)	-7.45
CN(CCc1ccncc1)Cc1nccn1Cc1ccccc1	8.96
CCCNC(=O)NCc1ccccc1NS(=O)(=O)c1ccccc1	-0.797
CC(=O)c1c(F)cccc1NC1CCN(S(=O)(=O)C2CC2)CC1	-6.69
O=C(Nc1cnc(C2CC2)nc1)N1CCCC1	-1.33
O=C(Nc1cnc(C2CC2)nc1)N1CCC(CN2CCCC2)C1 (centres undefined)	17.5
CCC(C)(NCC(=O)OC)c1nccs1 (centres undefined)	-2.64
CCC(C)(NCC(N)=O)c1nccs1 (centres undefined)	-4.9
CCNC(=O)NC(=O)CNC(C)(CC)c1nc(C)cs1 (centres undefined)	-4.63
COCc1ccccc1C(=O)N1CCC(CNC(=O)OC(C)(C)C)C1 (centres undefined)	-6.54
CC(C)c1nccn1C1CCCN(C(=O)c2ccc(=O)n(C)n2)C1 (centres undefined)	-8.03
CCNS(=O)(=O)C1CCN(C(=O)c2ccc(CC)o2)C1 (centres undefined)	-9.53
Cc1ccc(CNC(=O)N2CCOCC2C2CC2)cc1F (centres undefined)	-8.34
NC(=O)CN1CCC(NC2CSCCc3ccccc32)CC1 (centres undefined)	5.08
CS(=O)(=O)NCCNC(=O)C1(c2ccc(F)cc2)CC1	-0.0991
O=S(=O)(NCCN1CCOCC1)c1cncc(Cl)c1	4.99
NC(=O)C1CN(c2ccc3c(Cl)ccnc3c2F)CCO1 (centres undefined)	-7.96
COc1ncnc(N)c1CNCCOc1ccccc1Cl	-5.86
C[C@@H]1CN(c2ccc3c(Cl)ccnc3c2F)CC(C(N)=O)O1 (some centres undefined)	-4.78
CS(=O)(=O)CCOCCNc1ccc(C(F)(F)F)cc1C#N	-3.49

SMILES	cytotoxicity at 70.5 h [%]
CCOc1cccc(COC(=O)c2ccc(F)cn2)n1	-2.51
CC1CCN(C)c2ccccc2N1C(=O)c1ccn(C)c(=O)c1 (centres undefined)	-6.59
CCc1cc(C)nc(N2CCN(C(C)c3nc(C)no3)CC2)n1 (centres undefined)	-7.01
CN(C)c1ccnc(N2CCC(NCCOc3ccccc3)CC2)n1	19.6
Cc1cccc(C(=O)Nc2cccc3c2CCCC3)n1	-1.46
CCOC(=O)c1nc(CN2CCN(C(C)C(=O)NC3CC3)CC2)cs1 (centres undefined)	-9.09
Cc1ncc2c(n1)CN(C(C(N)=O)c1ccccc1)CC2 (centres undefined)	-7.87
O=S(=O)(CCCS(=O)(=O)c1ccc2c(c1)OCCCO2)c1ccccc1	-7.8
COc1ccc(F)cc1CSCC(=O)N(CCC#N)CCC#N	-3.2
c1ccc(OCCNC2CCN(c3ncccn3)CC2)cc1	2.01
CS(=O)(=O)CCCNC(=O)NC1CC(c2cccc(Cl)c2)C1 (centres undefined)	-3.19
COCC(=O)NC1CCCN(c2ccc(C)cc2)C1=O (centres undefined)	-0.459
O=C(Nc1ccccc1OC1CCOC1)c1cc[nH]n1 (centres undefined)	16.6
O=S1(=O)CCC(N2CCN(c3cc(C(F)(F)F)ccn3)CC2)C1 (centres undefined)	1.03
COCCN(C(=O)c1c[nH]c2ncccc12)C1CCCC1	0.976
Cc1cnn(-c2cccc(N3CCCCC3)n2)c1	15.7
COC(=O)c1cnc(C(=O)N(c2ccc(OC)c(F)c2)C(C)C)cn1	0.246
Cc1ccc(O)c(C(=O)N2CCCC2c2nncn2CC(C)C)c1 (centres undefined)	-0.402
Cc1ccc(C(=O)Nc2cccc3c2C(=O)NC3)c(C)n1	2.51
CCOCc1ccccc1NC(=O)NCC(C)(O)c1cc(C)oc1C (centres undefined)	-1.67
COc1ccc2cc(CN(C)C(C)c3nc(C4CC4)no3)ccc2c1 (centres undefined)	-0.253
CC(c1nc(C2CC2)no1)N(C)Cc1ccc(Cl)cc1 (centres undefined)	-3.08
CC(c1nc(C2CC2)no1)N(C)Cc1ccc2c(c1)OCCO2 (centres undefined)	-0.549
CC(C)Cn1cnnc1C1CCCN1C(=O)c1ccc(F)cc1F (centres undefined)	-2.82

SMILES	cytotoxicity at 70.5 h [%]
COc1cc(F)ccc1N(C)Cc1ccccn1	-1.59
CCNC(=O)CN(CC)C(=O)Cc1csc(C(C)C)n1	-1.29
COc1cccc2c1N(Cc1noc(C3CC3)n1)CCC2	39.7
O=C(NCc1ccncc1)N1CCSCC1CCO (centres undefined)	10.5
CC(C)C(NC(=O)c1ccco1)C(=O)N1CCC2(CC1)OCCO2 (centres undefined)	17.8
COc1ccccc1CCNC(=O)NC(C)COCC(F)(F)F (centres undefined)	-5.34
N#Cc1cccc(NC(=O)N2CCCC(N3CCCC3=O)C2)c1 (centres undefined)	0.781
N#Cc1nccnc1NC1CCN(c2ccccc2Br)C1 (centres undefined)	11.1
Cn1cccc(NC(=O)COc2ccc(Cl)cc2)c1=O	-1.21
COCC(C)NC(=O)NCCc1cccc(OC)c1O (centres undefined)	8.57
N#Cc1nccnc1NCCC1CCN(CC(F)(F)F)CC1	21.7
FC(F)(F)CN1CCC(CCNc2ncccn2)CC1	0.447
FC(F)c1nnc2ccc(N3CCC4(CCCCC4)C3)nn12	-3.87
CC(C)OCCS(=O)(=O)c1ccccc1C#N	11.2
N#Cc1nccnc1NC1CCN(c2c(F)cccc2F)C1 (centres undefined)	-4.72
COc1ccc2c(c1)C(=O)N(C)C1(CCN(C(=O)OC(C)(C)C)CC1)N2	1.71
NS(=O)(=O)CCN1CCOC(c2ccc(Cl)cc2)C1 (centres undefined)	2.97
Cc1ccccc1S(=O)(=O)CCOC(C)C	9.57
CCCS(=O)(=O)CCN1CCOC(c2ccsc2)C1 (centres undefined)	-2.47
CCc1nnc2n1CCN(C(=O)c1ccccc1OCC1CC1)C2	0.159
Cc1c(C(=O)N(C)CC(C)O)sc2nc(C(F)(F)F)ccc12 (centres undefined)	-9.55
CCS(=O)(=O)NCCNC(=O)N(Cc1ccc(C)o1)C(C)C	-13.2
COc1cccc2c1N(Cc1nc3c(cnn3C)c(=O)[nH]1)CCC2	22.2
Cn1ncc2c(=O)[nH]c(CN3CCCc4cc(F)cc(F)c43)nc21	-15.9

SMILES	cytotoxicity at 70.5 h [%]
CC(=O)N1Cc2ccccc2C[C@H]1C(=O)Nc1ccccn1	-12
CCN(CC)Cc1ccc(C(=O)NC2CCc3cc(Br)ccc32)o1 (centres undefined)	-24.6
CCN(CC(=O)NCc1nc(C2CC2)no1)Cc1ccc(Cl)cc1	-15.6
Cc1cc(C2CCCN(CC(=O)N3CCc4ccccc43)C2)n[nH]1 (centres undefined)	-6.5
Cn1ccnc1CNCCNc1ncc(Cl)cc1Cl	-5.95
COc1ccc(C(NCc2cccc(O)c2)C2CC2)cc1 (centres undefined)	16.8
CC(C)OCCN1CCN(c2ccc(CN(C)C)cn2)CC1	8.47
CN(C)C(=O)N1CCN(C(=O)c2ccc(Cl)c(Cl)c2)C(C)(C)C1	0.62
COc1ccc(CN(C)CC(=O)Nc2ccc3[nH]c(=O)[nH]c3c2)cc1F	-8.14
CN(CC(=O)c1ccc2[nH]c(=O)[nH]c2c1)Cc1ccc2c(c1)OCO2	-3.13
COc1ccc(CN(C)CC(=O)c2ccc3[nH]c(=O)[nH]c3c2)cc1F	-6.51
O=C(c1ccc(F)cc1F)N1CCN(C(=O)C2CCCCC2)CC1	-5.82
Cc1cn2nc(Sc3nnc(C(C)C)n3C)sc2n1	-10.9
CCc1nnc(Sc2nn3cc(C)nc3s2)n1C	-2.38
CCOc1ccc(Cl)cc1NC(=O)N1CCC(n2cncn2)CC1	-7.8
CCOc1ccc(NC(=O)N2CCC(n3cncn3)CC2)cc1Cl	19.7
O=C(c1occc1CN1C(=O)Cc2ccccc21)N1CCCCCC1	-3.4
O=C(c1cc(F)ccc1O)N1CCN(C2CCSC2)CC1 (centres undefined)	-8.37
O=C(c1occc1CN1C(=O)Cc2ccccc21)N1CC(O)C1	-1.51
Cc1cc(C)cc(C(=O)N2CCN(C(=O)N(C)C)CC2(C)C)c1	-0.125
Cc1noc(CN2CCC(Cc3ccc(F)cc3)CC2)n1	-9.61
CC(C)(N)c1nc(C(F)F)cc(=O)[nH]1	-6.3
Brc1ccc(CNCc2nnc3n2CCCCC3)s1	-16.6
